Assay results taken from ChEMBL document CHEMBL3763038, “Design and synthesis of a new generation of substituted purine hydroxamate analogs as histone deacetylase inhibitors” (Bioorg Med Chem, 2016).

What was measured:
Histone deacetylase 8 = target: T1, Histone deacetylase 8 (Homo sapiens, UniProt Q9BY41); test: Inhibition of C-terminal His-tagged human recombinant HDAC8 expressed in Sf9 cells after 30 mins by microtiter plate reader analysis
T1 sequence (Q9BY41 whole entry): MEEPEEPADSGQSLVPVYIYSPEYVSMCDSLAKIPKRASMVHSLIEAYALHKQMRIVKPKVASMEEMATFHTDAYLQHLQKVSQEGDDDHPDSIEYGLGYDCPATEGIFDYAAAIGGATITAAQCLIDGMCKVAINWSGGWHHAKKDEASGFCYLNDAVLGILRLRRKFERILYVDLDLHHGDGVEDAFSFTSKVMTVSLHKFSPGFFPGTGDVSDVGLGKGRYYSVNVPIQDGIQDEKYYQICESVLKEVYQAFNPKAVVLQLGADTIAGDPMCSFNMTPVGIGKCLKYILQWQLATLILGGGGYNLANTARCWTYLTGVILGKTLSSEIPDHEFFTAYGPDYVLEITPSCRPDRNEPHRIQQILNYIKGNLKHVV

Histone deacetylase 2 = Histone deacetylase 2 (Homo sapiens, UniProt Q92769); test: Inhibition of C-terminal GST-tagged human recombinant HDAC2 expressed in Sf9 cells after 30 mins by microtiter plate reader analysis; type: cell-based
Histone deacetylase 2, sequence (Q92769 whole entry): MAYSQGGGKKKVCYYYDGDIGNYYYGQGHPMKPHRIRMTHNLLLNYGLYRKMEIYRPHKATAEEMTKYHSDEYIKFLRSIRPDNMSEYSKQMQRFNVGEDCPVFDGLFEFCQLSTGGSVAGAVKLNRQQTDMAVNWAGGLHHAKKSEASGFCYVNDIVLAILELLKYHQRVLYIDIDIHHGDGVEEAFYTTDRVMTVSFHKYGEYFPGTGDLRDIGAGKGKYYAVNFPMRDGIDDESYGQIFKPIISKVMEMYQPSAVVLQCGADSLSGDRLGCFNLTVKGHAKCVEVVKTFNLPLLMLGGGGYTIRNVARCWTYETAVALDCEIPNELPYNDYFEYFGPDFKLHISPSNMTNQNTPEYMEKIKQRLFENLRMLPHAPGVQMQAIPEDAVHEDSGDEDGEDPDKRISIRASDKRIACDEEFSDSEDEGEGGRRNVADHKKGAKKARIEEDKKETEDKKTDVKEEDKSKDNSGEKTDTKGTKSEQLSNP

[1] = Antiproliferative activity against human KG1 cells after 48 hrs by MTT assay; type: functional, cell-based; conditions: KG-1, 48 h
[2] = target: Histone deacetylase (HDAC1 and HDAC2) (Homo sapiens, UniProt Q13547+Q92769); test: Inhibition of HDAC1/2 in human HeLa cell nuclear extract using color de Lys as substrate preincubated for 5 mins followed by substrate addition measured after 30 min by microtiter plate reader analysis; type: cell-based
MDA-MB-231 = test: Antiproliferative activity against human MDA-MB-231 cells after 48 hrs by MTT assay; type: functional, cell-based; conditions: MDA-MB-231, 48 h
[3] = Antiproliferative activity against human PC3 cells after 48 hrs by MTT assay; type: functional, cell-based; conditions: PC-3, 48 h

Structure (SMILES) | IC50 (Histone deacetylase 8) [nM] | IC50 (Histone deacetylase 2) [nM] | IC50 [1] [nM] | IC50 [2] [nM] | IC50 (MDA-MB-231) [nM] | IC50 [3] [nM]
O=C(CCCCCNc1nc(Cl)nc2c1ncn2Cc1ccccc1)NO | 1440 | 56 | 320 | 26 | 1120 | 2830
CC(C)Cn1cnc2c(NCCCCCCC(=O)NO)nc(Cl)nc21 | 2010 | 165 | 860 | 27 | 1650 | 1380
O=C(CCCCCCNc1nc(N2CCOCC2)nc2[nH]cnc12)NO |  |  |  | 157 |  | 
CC(C)n1cnc2c(NCCCCCCC(=O)NO)nc(N)nc21 | 3130 |  | 3430 |  | 3300 | 6860
CCCCn1cnc2c(NCCCCCC(=O)NO)nc(N3CCOCC3)nc21 |  |  |  | 130 |  | 
